Measured values taken from a compilation of properties of binary mixtures (doi:10.1021/acs.jpcb.7b06452).

Assay: xn = mol fraction of the nth substance listed
Conditions: 101 kPa

CC(=O)[O-].CCCC[n+]1ccn(C)c1 + CCCC[n+]1ccn(C)c1.O=S(=O)([N-]S(=O)(=O)C(F)(F)F)C(F)(F)F
viscosity [mPa·s]
Conditions	293.15 K	298.15 K	303.15 K	313.15 K	323.15 K	333.15 K	343.15 K	353.15 K
x1 = 0.2512	101.2	78	61.3	–	27.9	20.19	15.46	–
x1 = 0.5001	178	132	–	60.7	39.5	27.4	19.92	15.15
x1 = 0.7497	316	223	–	91.3	–	36.9	25.7	18.76

CC(=O)[O-].CCCC[P+](CCCC)(CCCC)CCCC + CC(=O)[O-].CCCC[n+]1ccn(C)c1
viscosity [mPa·s]
Conditions	313.15 K	323.15 K	333.15 K	343.15 K	353.15 K
x2 = 0	–	–	67.1	43.1	29.1
x2 = 0.5018	323	–	96.7	59.2	38.7
x2 = 0.751	–	133	78	49.6	33.2

CCCC[n+]1ccn(C)c1.O=S(=O)([N-]S(=O)(=O)C(F)(F)F)C(F)(F)F + CC(=O)[O-].CCCC[n+]1ccn(C)c1
x2 = 0
Conditions	viscosity [mPa·s]
293.15 K	62.9
303.15 K	40.8
313.15 K	28.1
323.15 K	20.29
333.15 K	15.34
343.15 K	11.98
